How the values were obtained:
Estrogen receptor [1] = target: T1, Estrogen receptor (Homo sapiens, UniProt P03372)
T1 sequence (P03372 whole entry): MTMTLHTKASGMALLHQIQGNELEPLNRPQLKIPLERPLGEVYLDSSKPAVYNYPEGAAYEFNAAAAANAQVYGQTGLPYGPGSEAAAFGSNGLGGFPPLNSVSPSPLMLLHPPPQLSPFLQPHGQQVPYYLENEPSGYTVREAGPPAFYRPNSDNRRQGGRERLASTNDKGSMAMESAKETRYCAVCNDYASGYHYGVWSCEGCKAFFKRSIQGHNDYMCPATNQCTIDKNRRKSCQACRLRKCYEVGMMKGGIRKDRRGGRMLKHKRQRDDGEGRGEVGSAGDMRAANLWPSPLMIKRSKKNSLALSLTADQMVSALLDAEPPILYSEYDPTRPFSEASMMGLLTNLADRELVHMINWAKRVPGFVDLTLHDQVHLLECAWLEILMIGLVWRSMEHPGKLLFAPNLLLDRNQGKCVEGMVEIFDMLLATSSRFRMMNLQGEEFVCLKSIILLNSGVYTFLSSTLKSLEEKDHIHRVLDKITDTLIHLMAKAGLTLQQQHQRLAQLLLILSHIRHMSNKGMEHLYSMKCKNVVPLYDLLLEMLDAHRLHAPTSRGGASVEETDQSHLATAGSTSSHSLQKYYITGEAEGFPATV
Description: Binding affinity for estrogen receptor alpha

Estrogen receptor beta = Estrogen receptor beta (Homo sapiens, UniProt Q92731)
Description: Binding affinity for estrogen receptor beta

Estrogen receptor [2] = target: Estrogen receptor (Homo sapiens, UniProt Q92731+P03372)
Description: Inhibition of estradiol-stimulated MCF-7 breast adenocarcinoma cell proliferation

Estrogen receptor beta, sequence (Q92731 whole entry): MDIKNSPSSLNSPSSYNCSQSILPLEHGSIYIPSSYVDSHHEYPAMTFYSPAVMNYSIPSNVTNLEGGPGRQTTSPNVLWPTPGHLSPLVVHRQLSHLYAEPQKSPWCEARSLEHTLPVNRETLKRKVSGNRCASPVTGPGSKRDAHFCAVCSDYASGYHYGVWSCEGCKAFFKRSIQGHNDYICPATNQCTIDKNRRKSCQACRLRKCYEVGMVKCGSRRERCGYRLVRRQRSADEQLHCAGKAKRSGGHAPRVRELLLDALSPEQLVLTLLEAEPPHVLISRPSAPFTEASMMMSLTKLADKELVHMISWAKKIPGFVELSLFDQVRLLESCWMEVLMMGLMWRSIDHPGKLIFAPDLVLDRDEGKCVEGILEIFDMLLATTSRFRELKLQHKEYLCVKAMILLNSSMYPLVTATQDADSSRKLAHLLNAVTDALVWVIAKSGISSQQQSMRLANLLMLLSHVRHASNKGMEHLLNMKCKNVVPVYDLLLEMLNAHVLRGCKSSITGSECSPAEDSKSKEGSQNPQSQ

Ki (Estrogen receptor [1]) [nM] | Ki (Estrogen receptor beta) [nM] | IC50 (Estrogen receptor [2]) [nM] | SMILES
310 | 35 | – | Oc1ccc(-c2ccc3cc(O)ccc3n2)cc1
– | 5.5 | – | Oc1cccc(C2CCc3cc(O)ccc3N2Cc2ccc(OCCN3CCCCC3)cc2)c1 (stereo not given)
– | > 1000 | 990 | O=C(c1ccc(OCCN2CCCCC2)cc1)N1c2ccc(O)cc2CCC1c1ccc(O)cc1 (stereo not given)
1.7 | 4 | 490 | Oc1ccc2c(c1)CCC(c1ccccc1)N2Cc1ccc(OCCN2CCCCC2)cc1 (stereo not given)
37 | > 1000 | 590 | O=C(c1ccc(OCCN2CCCCC2)cc1)N1c2ccc(O)cc2CCC1c1cccc(O)c1 (stereo not given)
1.1 | – | 68 | Oc1ccc(C2CCc3cc(O)ccc3N2Cc2ccc(OCCN3CCCC3)cc2)cc1 (stereo not given)

SMILES | Ki (Estrogen receptor [1]) [nM] | Ki (Estrogen receptor beta) [nM] | IC50 (Estrogen receptor [2]) [nM]
Oc1ccc(C2CCc3cc(O)ccc3N2)cc1 (stereo not given) | 170 | 65 | –

— ChEMBL document CHEMBL1136521, “Tetrahydroquinoline-based selective estrogen receptor modulators (SERMs)” (Bioorg Med Chem Lett, 2003)
